Data as given in ChEMBL document CHEMBL4376803, “Recent Advances in the Exploration of Therapeutic Analogues of Gramicidin S, an Old but Still Potent Antimicrobial Peptide” (J Med Chem, 2019).
pIC50: −log10 of the molar value. In brackets after ≈: the same amount, converted by molar mass. One block for each compound: values may come before it. Square brackets hold non-standard residues; d marks the D form. Peptide text beside a SMILES is read from it.

Experiments:
[1] = tested on: Staphylococcus epidermidis; test: Antibacterial activity against Staphylococcus epidermidis ATCC 12228 incubated for 24 hrs; assay type: functional; conditions: ATCC 12228, 24 h
Escherichia coli [2] = test: Antibacterial activity against Escherichia coli ATCC 25922 after 24 hrs; assay type: functional; conditions: ATCC 25922, 24 h
Bacillus cereus = test: Antibacterial activity against Bacillus cereus ATCC 11778 incubated for 24 hrs; assay type: functional; conditions: ATCC 11778, 24 h
Enterococcus faecalis [3] = test: Antibacterial activity against Enterococcus faecalis ATCC 29212 after 24 hrs; assay type: functional; conditions: ATCC 29212, 24 h
Pseudomonas aeruginosa [4] = test: Antibacterial activity against Pseudomonas aeruginosa ATCC 27853 incubated for 24 hrs; assay type: functional; conditions: ATCC 27853, 24 h
Staphylococcus aureus [5] = test: Antibacterial activity against Staphylococcus aureus ATCC 29213 after 24 hrs; assay type: functional; conditions: ATCC 29213, 24 h
[6] = Haemolytic activity in human RBC after 4 hrs; assay type: ADME, cell-based, Erythrocyte; conditions: human red blood cells
Staphylococcus aureus [7] = test: Antibacterial activity against Staphylococcus aureus ATCC 49975 after 16 to 20 hrs by broth microdilution method; assay type: functional
[8] = (§1) Haemolytic activity in human erythrocytes; assay type: ADME, cell-based, Erythrocyte; conditions: human erythrocytes
[9] = Therapeutic index, ratio of HD100 for hemolytic activity in human erythrocytes to MIC against Enterococcus faecalis ATCC 29212; assay type: toxicity, cell-based; conditions: read-out: TI
Escherichia coli [10] = test: Antibacterial activity against Escherichia coli ATCC 25922; assay type: functional
Erythrocyte [11] = test: as §1; assay type: ADME, cell-based; conditions: erythrocyte
Enterococcus faecalis [12] = test: Antibacterial activity against Enterococcus faecalis ATCC 29212; assay type: functional
Staphylococcus aureus [13] = test: Antibacterial activity against Staphylococcus aureus ATCC 29213; assay type: functional
[14] = Therapeutic index, ratio of HD100 for hemolytic activity in human erythrocytes to MIC against Escherichia coli ATCC 25922; assay type: toxicity, cell-based; conditions: read-out: TI
[15] = Therapeutic index, ratio of HD100 for hemolytic activity in human erythrocytes to MIC against Pseudomonas aeruginosa ATCC 27853; assay type: toxicity, cell-based; conditions: read-out: TI
[16] = Therapeutic index, ratio of HD100 for hemolytic activity in human erythrocytes to MIC against Staphylococcus aureus ATCC 29213; assay type: toxicity, cell-based; conditions: read-out: TI
Pseudomonas aeruginosa [17] = test: Antibacterial activity against Pseudomonas aeruginosa ATCC 27853; assay type: functional
[18] = Therapeutic index, ratio of HD100 for hemolytic activity in human RBC to MIC against Pseudomonas aeruginosa H187; assay type: toxicity; conditions: human red blood cells, read-out: TI
Escherichia coli [19] = test: Antibacterial activity against Escherichia coli UB1005 after overnight incubation by microtiter dilution method; assay type: functional
[20] = Therapeutic index, ratio of HD100 for hemolytic activity in human RBC to MIC against Staphylococcus aureus K147; assay type: toxicity; conditions: human red blood cells, read-out: TI
Candida albicans = test: Antibacterial activity against Candida albicans after overnight incubation by microtiter dilution method; assay type: functional
[21] = Therapeutic index, ratio of HD100 for hemolytic activity in human RBC to MIC against Escherichia coli UB1005; assay type: toxicity; conditions: human red blood cells, read-out: TI
[22] = Therapeutic index, ratio of HD100 for hemolytic activity in human RBC to MIC against Enterococcus faecalis ATCC 29212; assay type: toxicity; conditions: human red blood cells, read-out: TI
Staphylococcus aureus [23] = test: Antibacterial activity against Staphylococcus aureus K147 after overnight incubation by microtiter dilution method; assay type: functional
Enterococcus faecalis [24] = test: Antibacterial activity against Enterococcus faecalis ATCC 29212 after overnight incubation by microtiter dilution method; assay type: functional
Lipopolysaccharide (LPS) = test: Displacement of Dansyl-polymyxin from Pseudomonas aeruginosa LPS by fluorescence method; conditions: read-out: I50
Erythrocyte [25] = test: Haemolytic activity in human RBC after 24 hrs by visual method; assay type: ADME, cell-based
[26] = Therapeutic index, ratio of HD100 for hemolytic activity in human RBC to MIC against Candida albicans; assay type: toxicity; conditions: human red blood cells, read-out: TI
Pseudomonas aeruginosa [27] = test: Antibacterial activity against Pseudomonas aeruginosa H187 after overnight incubation by microtiter dilution method; assay type: functional

- MIC [1]: 8 µg/mL (≈ 6.99 µM)
- MIC (Escherichia coli [2]): 32 µg/mL (≈ 28 µM)
- MIC (Bacillus cereus): 8 µg/mL (≈ 6.99 µM)
- MIC (Enterococcus faecalis [3]): 16 µg/mL (≈ 14 µM)
- MIC (Pseudomonas aeruginosa [4]): > 64 µg/mL
- MIC (Staphylococcus aureus [5]): 16 µg/mL (≈ 14 µM)
SMILES: CC(C)C[C@@H]1NC(=O)[C@H](CCCN)NC(=O)[C@H](C(C)C)NC(=O)[C@@H]2CCCN2C(=O)[C@@H](Cc2ccccc2)NC(=O)[C@H](CC(C)C)NC(=O)[C@H](CCCN)NC(=O)[C@H](C(C)C)NC(=O)[C@H]2CC[C@H](OCc3ccccc3)[C@@H](CNC1=O)O2

- MIC (Escherichia coli [10]): 16 µg/mL (≈ 10.1 µM)
- MIC (Enterococcus faecalis [12]): 8 µg/mL (≈ 5.05 µM)
- MIC (Staphylococcus aureus [13]): 4 µg/mL (≈ 2.52 µM)
- MIC (Pseudomonas aeruginosa [17]): 8 µg/mL (≈ 5.05 µM)
SMILES: CC(C)C[C@@H]1NC(=O)[C@H](CCCN)NC(=O)[C@H](C(C)C)NC(=O)[C@@H]2CCCN2C(=O)[C@@H](Cc2ccccc2)NC(=O)[C@H](CC(C)C)NC(=O)[C@H](CCCN)NC(=O)[C@H](C(C)C)NC(=O)[C@H](CCCN)NC(=O)[C@H](CC(C)C)NC(=O)[C@H]2CC[C@H](OCc3ccccc3)[C@@H](CNC(=O)[C@H](C(C)C)NC(=O)[C@H](CCCN)NC1=O)O2
- selectivity ratio [9]: 7.8
- Activity (Erythrocyte [11]): 62.5 µg/mL
- selectivity ratio [14]: 3.9
- selectivity ratio [15]: 7.8
- selectivity ratio [16]: 15.6

- MIC (Escherichia coli [19]): 6.2 µg/mL (≈ 3.71 µM)
- MIC (Candida albicans): 6.2 µg/mL (≈ 3.71 µM)
- MIC (Staphylococcus aureus [23]): 100 µg/mL (≈ 59.9 µM)
- MIC (Enterococcus faecalis [24]): 1.5 µg/mL (≈ 0.898 µM)
- pIC50 (Lipopolysaccharide (LPS)): 4.03
- MIC (Pseudomonas aeruginosa [27]): 25 µg/mL (≈ 15 µM)
SMILES: CC(C)C[C@@H]1NC(=O)[C@H](CCCCN)NC(=O)[C@H](C(C)C)NC(=O)[C@@H]2CCCN2C(=O)[C@@H](Cc2ccc(O)cc2)NC(=O)[C@H](CC(C)C)NC(=O)[C@H](CCCCN)NC(=O)[C@H](C(C)C)NC(=O)[C@H](CCCCN)NC(=O)[C@H](CC(C)C)NC(=O)[C@@H]2CCCN2C(=O)[C@@H](Cc2ccc(O)cc2)NC(=O)[C@H](C(C)C)NC(=O)[C@@H](CCCCN)NC1=O (cyclo(KL[dK]V[dY]PLKVKL[dY]PV))
- selectivity ratio [18]: 8
- selectivity ratio [20]: 2
- selectivity ratio [21]: 32
- selectivity ratio [22]: 133
- HD100 (Erythrocyte [25]): 200 µg/mL
- selectivity ratio [26]: 32

More lines, now with the values behind:

SMILES: NCCC[C@@H]1NC(=O)[C@H](C23CC4CC(CC(C4)C2)C3)NC(=O)[C@@H]2CCCN2C(=O)[C@@H](Cc2ccccc2)NC(=O)[C@H](C23CC4CC(CC(C4)C2)C3)NC(=O)[C@H](CCCN)NC(=O)[C@H](C23CC4CC(CC(C4)C2)C3)NC(=O)[C@@H]2CCCN2C(=O)[C@@H](Cc2ccccc2)NC(=O)[C@H](C23CC4CC(CC(C4)C2)C3)NC1=O
- HC50 at 4 h [6]: 7.55 µg/mL

SMILES: CC(C)C[C@@H]1NC(=O)[C@@H](CCCN)NC(=O)[C@H](C(C)C)NC(=O)c2cccc(c2)/N=N\c2ccc(cc2)CNC(=O)[C@H](CCCN)NC(=O)[C@H](C(C)C)NC(=O)[C@@H]2CCCN2C(=O)[C@@H](Cc2ccccc2)NC1=O
- MIC (Staphylococcus aureus [7]): 64 µg/mL (≈ 62.7 µM)

SMILES: CC(C)C[C@@H]1NC(=O)[C@H](CCCN)NC(=O)[C@H](C(C)C)NC(=O)[C@@H]2CCCN2C(=O)[C@@H](Cc2ccccc2)NC(=O)[C@H](CC(C)C)NC(=O)[C@H](CCCN)NC(=O)[C@H](C(C)C)NC(=O)C2=CC3=C4CCCC4=C4C=C(SC4(C)C3(C)S2)C(=O)NNC1=O (stereo not given in full)
- HC50 [8]: 58 µg/mL
